The values below come from the supplement of paper PMC11368000.

A value given as a limit tells only on which side of the number the result lay.

One test concerns 1083 (donor line of iPSC-derived cardiomyocytes). Put plainly: POD (EC05) for increase in beat frequency (positive chronotrope) vs vehicle; higher = less potent (higher point of departure). The conditions noted are these: exposure time: 90 min. Here is the method: (§1)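 Human iPSC-derived cardiomyocytes from 16 donors were exposed for 90 min at 37 °C to each PFAS at 0.1, 1, 10 and 100 µM in 0.5% DMSO, 384-well plates. Kinetic Ca2+ flux (FLIPR) and Hoechst nuclei counts were normalised to vehicle wells and fitted with a hierarchical Bayesian Hill model to give donor-specific PODs: EC05 for beat-rate increase or decrease and for decay-to-rise ratio increase (QT proxy), EC95 for peak-frequency loss (asystole), EC10 for total cell number loss. 0.03 µM is the lower bound.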
Compound `NC(=O)C(F)(F)C(F)(F)C(F)(F)F` [Heptafluorobutyramide] gave a POD vs vehicle of over 100 µM.

In the case of `OCC(F)(F)C(F)(F)C(F)(F)CO` [Hexafluoroamylene_glycol], the POD vs vehicle was over 100 µM.

In turn, `COC(=O)C(F)(F)C(F)(F)OC(F)(C(F)(F)F)C(F)(F)OC(F)=C(F)F` (stereo not drawn) [Methyl_perfluoro(3-(1-ethenyloxypropan-2-yloxy)propanoate)] came in with a POD vs vehicle of over 100 µM.

Compound `NC(=O)C(F)(F)C(F)(F)C(F)(F)C(F)(F)F` [Nonafluoropentanamide] gave a POD vs vehicle of over 100 µM.

For `NC(=O)C(F)(F)C(F)(F)C(F)(F)C(F)(F)C(N)=O` [Octafluoroadipamide], the POD vs vehicle was over 100 µM.

In the case of `O=C(O)C(F)(F)C(F)(F)C(F)(F)C(F)(F)C(=O)O` [Octafluoroadipic_acid], the POD vs vehicle was over 100 µM.

`O=C(O)C(F)(F)C(F)(F)C(F)(F)OC(F)(F)F` [Perfluoro(4-methoxybutanoic)_acid] had a POD vs vehicle of over 100 µM.

`O=C(O)C(F)(F)OC(F)(F)C(F)(F)OC(F)(F)C(F)(F)OC(F)(F)C(F)(F)C(F)(F)C(F)(F)F` [Perfluoro-3,6,9-trioxatridecanoic_acid]: the POD vs vehicle was over 100 µM.

`O=C(O)C(F)(F)OC(F)(F)C(F)(F)OC(F)(F)F` [Perfluoro-3,6-dioxaheptanoic_acid] yielded a POD vs vehicle of over 100 µM.

`O=C(O)C(F)(F)OC(F)(F)C(F)(F)OC(F)(F)C(=O)O` [Perfluoro-3,6-dioxaoctane-1,8-dioic_acid]: the POD vs vehicle was over 100 µM.

For a further test, the system named is 1565 (donor line of iPSC-derived cardiomyocytes). Described as above. The conditions noted are these: exposure time: 90 min. As for the experimental part:
as §1
Turning to `OCC(F)(F)C(F)(F)C(F)(F)C(F)(F)C(F)(F)C(F)(F)F` [6:1 Fluorotelomer alcohol], the POD vs vehicle is over 100 µM.

As for `OCCC(F)(F)C(F)(F)C(F)(F)C(F)(F)C(F)(F)C(F)(F)F` [6:2 Fluorotelomer alcohol], the POD vs vehicle is over 100 µM.

In turn, `O=S(=O)(O)CCC(F)(F)C(F)(F)C(F)(F)C(F)(F)C(F)(F)C(F)(F)F` [6:2 Fluorotelomer sulfonic acid] had a POD vs vehicle of over 100 µM.

With `OCCC(F)(F)C(F)(F)C(F)(F)C(F)(F)C(F)(F)C(F)(F)C(F)(F)C(F)(F)F` [8:2 Fluorotelomer alcohol], the POD vs vehicle is over 100 µM.

The compound `O=S(=O)(O)CCC(F)(F)C(F)(F)C(F)(F)C(F)(F)C(F)(F)C(F)(F)C(F)(F)C(F)(F)F` [8:2 Fluorotelomer sulfonic acid] displayed a POD vs vehicle of over 100 µM.

In turn, `O=C(O)C(F)(F)C(F)(F)C(F)(F)C(F)(F)C(F)(F)C(F)(F)C(F)(F)C(F)(F)Cl` [9-Chloro-perfluorononanoic_acid] showed a POD vs vehicle of over 100 µM.

As for `O=P(O)(O)CCC(F)(F)C(F)(F)C(F)(F)C(F)(F)C(F)(F)C(F)(F)C(F)(F)C(F)(F)F` [((Perfluorooctyl)ethyl)phosphonic_acid], the POD vs vehicle is over 100 µM.

`OCC(F)(F)C(F)(F)C(F)(F)C(F)(F)C(F)(F)C(F)F` [Dodecafluoroheptanol] had a POD vs vehicle of over 100 µM.

Regarding `OCC(F)(F)C(F)(F)C(F)(F)F` [Heptafluorobutanol], the POD vs vehicle was over 100 µM.

`NC(=O)C(F)(F)C(F)(F)C(F)(F)F` [Heptafluorobutyramide] had a POD vs vehicle of over 100 µM.

Compound `OCC(F)(F)C(F)(F)C(F)(F)CO` [Hexafluoroamylene_glycol] returned a POD vs vehicle of over 100 µM.

Take `COC(=O)C(F)(F)C(F)(F)OC(F)(C(F)(F)F)C(F)(F)OC(F)=C(F)F` (stereo not drawn) [Methyl_perfluoro(3-(1-ethenyloxypropan-2-yloxy)propanoate)]: the POD vs vehicle was over 100 µM.

With `NC(=O)C(F)(F)C(F)(F)C(F)(F)C(F)(F)F` [Nonafluoropentanamide], the POD vs vehicle is over 100 µM.

`NC(=O)C(F)(F)C(F)(F)C(F)(F)C(F)(F)C(N)=O` [Octafluoroadipamide]: the POD vs vehicle is over 100 µM.

`O=C(O)C(F)(F)C(F)(F)C(F)(F)C(F)(F)C(=O)O` [Octafluoroadipic_acid] came in with a POD vs vehicle of over 100 µM.

`O=C(O)C(F)(F)C(F)(F)C(F)(F)OC(F)(F)F` [Perfluoro(4-methoxybutanoic)_acid] had a POD vs vehicle of over 100 µM.

`O=C(O)C(F)(F)OC(F)(F)C(F)(F)OC(F)(F)C(F)(F)OC(F)(F)C(F)(F)C(F)(F)C(F)(F)F` [Perfluoro-3,6,9-trioxatridecanoic_acid] came in with a POD vs vehicle of over 100 µM.

`O=C(O)C(F)(F)OC(F)(F)C(F)(F)OC(F)(F)F` [Perfluoro-3,6-dioxaheptanoic_acid] displayed a POD vs vehicle of over 100 µM.

Consider `O=C(O)C(F)(F)OC(F)(F)C(F)(F)OC(F)(F)C(=O)O` [Perfluoro-3,6-dioxaoctane-1,8-dioic_acid], for which the POD vs vehicle is over 100 µM.

The test system of another test is 1516 (donor line of iPSC-derived cardiomyocytes). Described as above. As to conditions: exposure time: 90 min. Here is the method: as §1
Turning to `OCC(F)(F)C(F)(F)C(F)(F)C(F)(F)C(F)(F)C(F)(F)F` [6:1 Fluorotelomer alcohol], the POD vs vehicle was over 100 µM.

As for `OCCC(F)(F)C(F)(F)C(F)(F)C(F)(F)C(F)(F)C(F)(F)F` [6:2 Fluorotelomer alcohol], the POD vs vehicle was over 100 µM.

Consider `O=S(=O)(O)CCC(F)(F)C(F)(F)C(F)(F)C(F)(F)C(F)(F)C(F)(F)F` [6:2 Fluorotelomer sulfonic acid], for which the POD vs vehicle is over 100 µM.

With `OCCC(F)(F)C(F)(F)C(F)(F)C(F)(F)C(F)(F)C(F)(F)C(F)(F)C(F)(F)F` [8:2 Fluorotelomer alcohol], the POD vs vehicle was over 100 µM.

Consider `O=S(=O)(O)CCC(F)(F)C(F)(F)C(F)(F)C(F)(F)C(F)(F)C(F)(F)C(F)(F)C(F)(F)F` [8:2 Fluorotelomer sulfonic acid], for which the POD vs vehicle was over 100 µM.

As to `O=C(O)C(F)(F)C(F)(F)C(F)(F)C(F)(F)C(F)(F)C(F)(F)C(F)(F)C(F)(F)Cl` [9-Chloro-perfluorononanoic_acid], the POD vs vehicle is over 100 µM.

As for `O=P(O)(O)CCC(F)(F)C(F)(F)C(F)(F)C(F)(F)C(F)(F)C(F)(F)C(F)(F)C(F)(F)F` [((Perfluorooctyl)ethyl)phosphonic_acid], the POD vs vehicle is over 100 µM.

Compound `OCC(F)(F)C(F)(F)C(F)(F)C(F)(F)C(F)(F)C(F)F` [Dodecafluoroheptanol] registered a POD vs vehicle of over 100 µM.

On to `OCC(F)(F)C(F)(F)C(F)(F)F` [Heptafluorobutanol], for which the POD vs vehicle was over 100 µM.

For `NC(=O)C(F)(F)C(F)(F)C(F)(F)F` [Heptafluorobutyramide], the POD vs vehicle was over 100 µM.

For the compound `OCC(F)(F)C(F)(F)C(F)(F)CO` [Hexafluoroamylene_glycol], the POD vs vehicle is over 100 µM.

Take `COC(=O)C(F)(F)C(F)(F)OC(F)(C(F)(F)F)C(F)(F)OC(F)=C(F)F` (stereo not drawn) [Methyl_perfluoro(3-(1-ethenyloxypropan-2-yloxy)propanoate)]: the POD vs vehicle was over 100 µM.

In turn, `NC(=O)C(F)(F)C(F)(F)C(F)(F)C(F)(F)F` [Nonafluoropentanamide] yielded a POD vs vehicle of over 100 µM.

`NC(=O)C(F)(F)C(F)(F)C(F)(F)C(F)(F)C(N)=O` [Octafluoroadipamide] registered a POD vs vehicle of over 100 µM.

In turn, `O=C(O)C(F)(F)C(F)(F)C(F)(F)C(F)(F)C(=O)O` [Octafluoroadipic_acid] registered a POD vs vehicle of over 100 µM.

In turn, `O=C(O)C(F)(F)C(F)(F)C(F)(F)OC(F)(F)F` [Perfluoro(4-methoxybutanoic)_acid] showed a POD vs vehicle of over 100 µM.

Regarding `O=C(O)C(F)(F)OC(F)(F)C(F)(F)OC(F)(F)C(F)(F)OC(F)(F)C(F)(F)C(F)(F)C(F)(F)F` [Perfluoro-3,6,9-trioxatridecanoic_acid], the POD vs vehicle was over 100 µM.

`O=C(O)C(F)(F)OC(F)(F)C(F)(F)OC(F)(F)F` [Perfluoro-3,6-dioxaheptanoic_acid] returned a POD vs vehicle of over 100 µM.

In turn, `O=C(O)C(F)(F)OC(F)(F)C(F)(F)OC(F)(F)C(=O)O` [Perfluoro-3,6-dioxaoctane-1,8-dioic_acid] had a POD vs vehicle of 68.4 µM.
